According to ChEMBL document CHEMBL3351597, “Synthesis and activity of new triphenylphosphonium derivatives of betulin and betulinic acid against Schistosoma mansoni in vitro and in vivo” (Bioorg Med Chem, 2014):
The source made the active and inactive calls. The rule behind the calls is not given here.

Columns and labels:
[1] = test system: Schistosoma mansoni; experiment: Antischistosomal activity against newly transformed Schistosoma mansoni assessed as decrease in viability after 72 hrs; type: functional, organism-based
[2] = test system: Schistosoma mansoni; experiment: Antischistosomal activity against newly transformed Schistosoma mansoni assessed as death at 8.33 microg/ml after 72 hrs; type: functional, organism-based
[3] = test system: L6; experiment: Cytotoxicity against rat L6 cells after 24 hrs by Resazurin dye; type: cell-based; conditions: L6, 24 h
[4] = test system: Schistosoma mansoni; experiment: Antischistosomal activity against newly transformed Schistosoma mansoni assessed as death at 2.78 microg/ml after 72 hrs; type: functional, organism-based
[5] = test system: Schistosoma mansoni; experiment: Antischistosomal activity against Schistosoma mansoni infected in NMRI mouse assessed as mouse cured at 400 mg/kg, po treated after 49 days of infection measured after 21 days post treatment; type: functional, organism-based; design: dose 400 mg/kg
[6] = test system: Schistosoma mansoni; experiment: Antischistosomal activity against Schistosoma mansoni infected in NMRI mouse assessed as reduction of total worm burden at 400 mg/kg, po treated after 49 days of infection measured after 21 days post treatment; type: functional
[7] = test system: Schistosoma mansoni; experiment: Antischistosomal activity against Schistosoma mansoni infected in NMRI mouse assessed as reduction of female worm burden at 400 mg/kg, po treated after 49 days of infection measured after 21 days post treatment; type: functional

Row | Compound | IC50 [1] [µg/mL] | Activity [1] | Activity [2] | other results
1 | COC(=O)[C@]12CC[C@@H](C(C)C)[C@@H]1[C@H]1CC[C@@H]3[C@@]4(C)C[C@H](CCC[P+](c5ccccc5)(c5ccccc5)c5ccccc5)[C@@H](O)C(C)(C)[C@@H]4CC[C@@]3(C)[C@]1(C)CC2 |  | Active |  | 
2 | CC(=O)O[C@H]1[C@@H](CCC[P+](c2ccccc2)(c2ccccc2)c2ccccc2)C[C@]2(C)[C@H]3CC[C@@H]4[C@H]5[C@H](C(C)C)CC[C@]5(C(=O)OCc5ccccc5)CC[C@@]4(C)[C@]3(C)CC[C@H]2C1(C)C |  | Active |  | 
3 | C=C(C[P+](c1ccccc1)(c1ccccc1)c1ccccc1)[C@@H]1CC[C@]2(COC(C)=O)CC[C@]3(C)[C@H](CC[C@@H]4[C@@]5(C)CC[C@H](OC(C)=O)C(C)(C)[C@@H]5CC[C@]43C)[C@@H]12.[Br-] | 0.64 |  | Active | Activity [4]: Active; IC50 [3]: 0.64 µg/mL; Activity [5]: inactive; inhibition in vivo at 400 mg/kg [6]: 22.2%; inhibition in vivo at 400 mg/kg [7]: 20.3%
4 | CC(=O)O[C@H]1[C@@H](CCC[P+](c2ccccc2)(c2ccccc2)c2ccccc2)C[C@]2(C)[C@H]3CC[C@@H]4[C@H]5[C@H](C(C)C)CC[C@]5(C(=O)O)CC[C@@]4(C)[C@]3(C)CC[C@H]2C1(C)C |  | Active |  | 
5 | COC(=O)[C@]12CC[C@@H](C(C)C)[C@@H]1[C@H]1CC[C@@H]3[C@@]4(C)C[C@H](CCC[P+](c5ccccc5)(c5ccccc5)c5ccccc5)[C@H](O)C(C)(C)[C@@H]4CC[C@@]3(C)[C@]1(C)CC2 |  | Active |  | 

Now from value to molecule, other results behind:

Row | IC50 [1] [µg/mL] | Compound | Activity [1] | Activity [2] | other results
6 | 1.37 | COC(=O)[C@]12CC[C@@H](C(C)C)[C@@H]1[C@H]1CC[C@@H]3[C@@]4(C)C[C@H](CCC[P+](c5ccccc5)(c5ccccc5)c5ccccc5)[C@@H](OC(C)=O)C(C)(C)[C@@H]4CC[C@@]3(C)[C@]1(C)CC2.[Br-] |  | Active | 
7 | 6.35 | COC(=O)[C@]12CC[C@@H](C(C)CI)[C@@H]1[C@H]1CC[C@@H]3[C@@]4(C)C[C@H](CCC[P+](c5ccccc5)(c5ccccc5)c5ccccc5)[C@H](OC(C)=O)C(C)(C)[C@@H]4CC[C@@]3(C)[C@]1(C)CC2.[I-] (stereo partly drawn) |  |  | IC50 [3]: 1.65 µg/mL
8 | 1.46 | COC(=O)[C@]12CC[C@@H](C(C)C)[C@@H]1[C@H]1CC[C@@H]3[C@@]4(C)C[C@H](CCC[P+](c5ccccc5)(c5ccccc5)c5ccccc5)[C@H](OC(C)=O)C(C)(C)[C@@H]4CC[C@@]3(C)[C@]1(C)CC2.[Br-] |  | Active | 
9 | 0.76 | C=C(C[P+](c1ccccc1)(c1ccccc1)c1ccccc1)[C@@H]1CC[C@]2(C(=O)OC)CC[C@]3(C)[C@H](CC[C@@H]4[C@@]5(C)CC[C@H](OC(C)=O)C(C)(C)[C@@H]5CC[C@]43C)[C@@H]12.[Br-] |  | Active | Activity [4]: Active; Activity [5]: inactive; inhibition in vivo at 400 mg/kg [6]: 21.9%; inhibition in vivo at 400 mg/kg [7]: 24.8%
